Experimental data published in the supplement of paper PMC11451515.

Test system: P12-Ichikawa
Assay: cell viability relative to DMSO control; higher = less cytotoxic
Conditions: 48 h
Summary of the method: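 Cells were incubated for 48 h at 37°C before CellTiter-Glo One luminescence was read. The cells were NOMO1 or SEM (500 cells/well) or P12-Ichikawa (1000 cells/well) leukemia cells, adapted for at least four passages in each medium and seeded in 1536-well plates (5 μl). Dosing used library compounds in DMSO applied by pin over 11 threefold points, 47 μM to 0.79 nM. Viability is the per-plate percentage of DMSO wells, with cell-free wells as background.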

[1] = HPLM + 10% dialyzed FBS, 0.000781 µM
[2] = HPLM + 10% dialyzed FBS, 0.00234 µM
[3] = HPLM + 10% dialyzed FBS, 0.00702 µM
[4] = HPLM + 10% dialyzed FBS, 0.0211 µM
[5] = HPLM + 10% dialyzed FBS, 0.0632 µM
[6] = HPLM + 10% dialyzed FBS, 0.19 µM
[7] = HPLM + 10% dialyzed FBS, 0.569 µM
[8] = HPLM + 10% dialyzed FBS, 1.71 µM
[9] = HPLM + 10% dialyzed FBS, 5.12 µM
[10] = HPLM + 10% dialyzed FBS, 15.4 µM
[11] = HPLM + 10% dialyzed FBS, 46.1 µM
[12] = RPMI 5 mM glucose + 10% FBS, 0.000781 µM
[13] = RPMI 5 mM glucose + 10% FBS, 0.00234 µM
[14] = RPMI 5 mM glucose + 10% FBS, 0.00702 µM
[15] = RPMI 5 mM glucose + 10% FBS, 0.0211 µM
[16] = RPMI 5 mM glucose + 10% FBS, 0.0632 µM
[17] = RPMI 5 mM glucose + 10% FBS, 0.19 µM
[18] = RPMI 5 mM glucose + 10% FBS, 0.569 µM
[19] = RPMI 5 mM glucose + 10% FBS, 1.71 µM
[20] = RPMI 5 mM glucose + 10% FBS, 5.12 µM
[21] = RPMI 5 mM glucose + 10% FBS, 15.4 µM
[22] = RPMI 5 mM glucose + 10% FBS, 46.1 µM
[23] = RPMI 5 mM glucose + 10% dialyzed FBS, 0.000781 µM
[24] = RPMI 5 mM glucose + 10% dialyzed FBS, 0.00234 µM
[25] = RPMI 5 mM glucose + 10% dialyzed FBS, 0.00702 µM
[26] = RPMI 5 mM glucose + 10% dialyzed FBS, 0.0211 µM
[27] = RPMI 5 mM glucose + 10% dialyzed FBS, 0.0632 µM
[28] = RPMI 5 mM glucose + 10% dialyzed FBS, 0.19 µM
[29] = RPMI 5 mM glucose + 10% dialyzed FBS, 0.569 µM
[30] = RPMI 5 mM glucose + 10% dialyzed FBS, 1.71 µM
[31] = RPMI 5 mM glucose + 10% dialyzed FBS, 5.12 µM
[32] = RPMI 5 mM glucose + 10% dialyzed FBS, 15.4 µM
[33] = RPMI 5 mM glucose + 10% dialyzed FBS, 46.1 µM

Row | SMILES | cell viability [1] [%] | cell viability [2] [%] | cell viability [3] [%] | cell viability [4] [%] | cell viability [5] [%] | cell viability [6] [%] | cell viability [7] [%] | cell viability [8] [%] | cell viability [9] [%] | cell viability [10] [%] | cell viability [11] [%] | cell viability [12] [%] | cell viability [13] [%] | cell viability [14] [%] | cell viability [15] [%] | cell viability [16] [%] | cell viability [17] [%] | cell viability [18] [%] | cell viability [19] [%] | cell viability [20] [%] | cell viability [21] [%] | cell viability [22] [%] | cell viability [23] [%] | cell viability [24] [%] | cell viability [25] [%] | cell viability [26] [%] | cell viability [27] [%] | cell viability [28] [%] | cell viability [29] [%] | cell viability [30] [%] | cell viability [31] [%] | cell viability [32] [%] | cell viability [33] [%]
1 | C[C@@H](O)[C@@H]1NC(=O)[C@H](CCCCN)NC(=O)[C@@H](Cc2c[nH]c3ccccc23)NC(=O)[C@H](Cc2ccccc2)NC(=O)[C@@H](NC(=O)[C@H](N)Cc2ccccc2)CSSC[C@@H](C(=O)N[C@H](CO)[C@@H](C)O)NC1=O | 84.1 | 94.4 | 88.9 | 90.5 | 91.7 | 94.1 | 91.3 | 95.8 | 89.4 | 92 | 95 | 76.4 | 85.1 | 83 | 87.2 | 81.7 | 81.3 | 83 | 83.8 | 86.4 | 78.8 | 81 | 83 | 80.8 | 85.7 | 82.6 | 84.9 | 79.8 | 80.1 | 84.7 | 79.8 | 79.9 | 79.7
2 | Cc1c(C)c2c(c(C)c1O)CCC(C)(COc1ccc(CC3SC(=O)NC3=O)cc1)O2 (configuration not stated) | 112 | 127 | 121 | 126 | 126 | 127 | 131 | 136 | 129 | 118 | 109 |  |  |  |  |  |  |  |  |  |  |  |  |  |  |  |  |  |  |  |  |  | 
3 | CNC(=O)Nc1ccc(-c2nc(N3CC4CCC(C3)O4)c3cnn(C4CCC5(CC4)OCCO5)c3n2)cc1 | 107 | 106 | 95.7 | 92.5 | 95.4 | 82.7 | 86.1 | 76.7 | 74.2 | 74.9 | 72.5 | 96.9 | 84.1 | 75.8 | 75.5 | 69.8 | 65.8 | 64.2 | 60.8 | 57.1 | 49.6 | 53 | 106 | 98 | 91.1 | 82.1 | 81.8 | 70.5 | 67.4 | 65.2 | 56.8 | 44.8 | 50.9
4 | CN(C)C1=C(Br)C=C(C=C1)C\2NC3=C(\C4=C2C(=O)CC(C)(C)C4)C5=CC=CC=C5C=C3 (configuration not stated) | 116 | 96.7 | 118 | 116 | 116 | 113 | 106 | 108 | 107 | 103 | 108 | 112 | 115 | 116 | 104 | 111 | 100 | 109 | 101 | 105 | 102 | 107 | 112 | 111 | 110 | 113 | 117 | 109 | 102 | 111 | 101 | 97 | 104
5 | Cc1noc(-c2ccc(CSCCC(=O)O)cc2)c1NC(=O)OC(C)c1ccccc1Cl (configuration not stated) | 98.3 | 99.3 | 97.1 | 102 | 95.4 | 101 | 101 | 107 | 99 | 88.6 | 70.2 | 88.3 | 89.1 | 80.9 | 87.4 | 86.4 | 95.7 | 97.3 | 94.7 | 93.1 | 87.3 | 85.3 | 90.3 | 90 | 91.7 | 96.7 | 91.6 | 102 | 84.8 | 89.1 | 97.9 | 89.3 | 79.5
6 | C[C@]12CC[C@H]3[C@@H](CCC/4=C/C(=O)CC[C@]34C)[C@@H]1CC[C@@H]2OC(=O)CCC5CCCC5 | 93.1 | 100 | 104 | 113 | 98.8 | 101 | 106 | 110 | 104 | 111 | 114 | 83.1 | 84.3 | 101 | 107 | 115 | 104 | 107 | 108 | 110 | 101 | 99.9 | 90.8 | 93.5 | 99.8 | 102 | 100 | 104 | 104 | 98.9 | 104 | 110 | 96.7
7 | NC(=O)NO | 85.4 | 102 | 100 | 100 | 94.3 | 99.6 | 102 | 104 | 72.4 | 28.8 | 2.02 | 83.7 | 103 | 91.4 | 90.8 | 98.7 | 98.5 | 91.2 | 90.9 | 77.1 | 43.6 | 0.136 | 88.4 | 88.3 | 87.7 | 91.4 | 92.2 | 96 | 94.1 | 87.2 | 65.2 | 22.9 | 2.61
8 | Cc1c[nH]c(-c2cnc(NCCNc3ccc(C#N)cn3)nc2-c2ccc(Cl)cc2Cl)n1 | 75.2 | 83.3 | 80.6 | 88.1 | 87.7 | 88.9 | 88.3 | 94.3 | 91.2 | 91.1 | 16.4 | 67.6 | 82.5 | 77.7 | 78.7 | 79.9 | 80.6 | 78.9 | 83.5 | 75 | 89.1 | 24.8 | 75.1 | 85.3 | 80.2 | 80 | 81 | 82.2 | 78.8 | 80.6 | 84.1 | 92.9 | 29.9
9 | CON(C)C(=O)N1/N=C(S[C@@]1(CCCN)C2=CC=CC=C2)/C3=CC(=CC=C3F)F | 102 | 118 | 122 | 83.1 | 12.1 | 10.6 | 10.1 | 10.1 | 9 | 11.4 | 10.7 | 101 | 114 | 123 | 61.1 | 13.7 | 12.6 | 14.3 | 10.8 | 8.36 | 9.67 | 11.1 |  |  |  |  |  |  |  |  |  |  | 
10 | CC(C)(O)/C=C\C(=O)[C@](C)(O)[C@H]1[C@H](O)C[C@]2(C)[C@@H]3CC=C4[C@@H](C=C(O)C(=O)C4(C)C)[C@]3(C)C(=O)C[C@@]12C | 94.8 | 106 | 103 | 99.6 | 99.7 | 50.9 | 15.1 | 18.4 | 21.6 | 12.9 | 4.2 | 113 | 105 | 111 | 107 | 97.9 | 47.3 | 12.4 | 15.1 | 17.1 | 6.22 | 2.85 | 93.9 | 98.5 | 93.9 | 104 | 102 | 43.8 | 14.6 | 17.9 | 20.9 | 6.49 | 3.06
11 | COC1=CC=C2CN(C)CC[C@@]34\C=C/[C@H](O)C[C@@H]3OC1=C24 |  |  |  |  |  |  |  |  |  |  |  |  |  |  |  |  |  |  |  |  |  |  | 121 | 124 | 118 | 117 | 130 | 120 | 119 | 121 | 82.6 | 102 | 111
12 | NC(=O)Nc1cc(-c2cccc(F)c2)sc1C(=O)N[C@H]1CCCNC1 | 121 | 124 | 125 | 122 | 130 | 112 | 111 | 74 | 13.4 | 7.94 | 6.66 |  |  |  |  |  |  |  |  |  |  |  |  |  |  |  |  |  |  |  |  |  | 
13 | COC1=CC=C(C=C1O)C/2=C/C(=O)C3=C(O2)C=C(O[C@@H]4O[C@H](CO[C@@H]5O[C@@H](C)[C@H](O)[C@@H](O)[C@H]5O)[C@@H](O)[C@H](O)[C@H]4O)C=C3O | 108 | 112 | 121 | 121 | 115 | 116 | 118 | 118 | 116 | 123 | 122 | 113 | 113 | 118 | 119 | 137 | 116 | 126 | 115 | 123 | 113 | 131 | 116 | 117 | 117 | 125 | 122 | 125 | 126 | 130 | 118 | 121 | 127
14 | OCc1ccc(-c2ccc(-c3ccc(CO)s3)o2)s1 | 116 | 116 | 106 | 116 | 101 | 105 | 102 | 106 | 98 | 97.8 | 87.3 |  |  |  |  |  |  |  |  |  |  |  | 118 | 123 | 130 | 125 | 118 | 109 | 104 | 95.4 | 96.3 | 91 | 78.6
15 | CC(NCCc1ccc(O)cc1)C(O)c1ccc(O)cc1 (configuration not stated) | 106 | 109 | 116 | 113 | 117 | 112 | 111 | 103 | 109 | 106 | 100 | 114 | 120 | 122 | 115 | 110 | 114 | 125 | 116 | 120 | 99 | 111 | 107 | 105 | 113 | 109 | 115 | 111 | 107 | 105 | 102 | 97 | 90.6
